From patent US20110171275A1, “GASTRORETENTIVE DRUG DELIVERY SYSTEM, PREPARATION METHOD AND USE THEREOF” (TEAM ACADEMY OF PHARMACEUTICAL SCIENCE, priority 2008, published 2011) come the findings set out here.

The nature of this data set: Solubility in artificial gastric juice versus artificial intestinal fluid. It counts as physicochemical. The settings on record: artificial gastric juice vs artificial intestinal fluid. The procedure:
Rosiglitazone is a second-generation thiazolidinedione hypoglycemic agent. Gastric floating tablets of rosiglitazone reported in the literature are prepared by conventional preparation techniques for gastric floating tablets as follows: the hydrophilic gel material with high viscosity, i.e., hydroxypropyl methyl cellulose (HPMC) is selected, to which appropriate amount of foaming agent is added, and then the resulting mixture is compressed into tablets by direct powder compression. The resulting gastric floating tablets are claimed to have the same bioavailability with common tablets administered in a multiple doses [Hao Feng, Zhimin Wang, Dawei Chen, Studies on floating sustained release tablets of rosiglitazone maleate, Journal of China Pharmaceutical University, 2002, 33 (3): 196-199]. […] The gas-vesicle-type floating formulation of the present invention can ensure that the density of the formulation is relatively small (generally<0.6 g/cm^3), thereby it can float at the early stage of administration, since the shape of the capsule keeps unchange in the stomach. Thus, the entire volume of the formulation remains relatively stable, so that stable and sustainable floating capacity is achieved.

Consider `CN(CCOc1ccc(CC2SC(=O)NC2=O)cc1)c1ccccn1` (stereo not shown) [rosiglitazone], for which the “solubility in artificial gastric juice relative to artificial intestinal fluid” value was “about a million times more”.
